Structures can show the parent of a compound that is named as a salt.
Key:
[1] = target: T1, guinea-pig tracheal strips (LTD4) (Cavia porcellus, UniProt Q2NNR5); assay: leukotriene antagonism on guinea-pig tracheal strips (LTD4 concentration-response); format: cell-based; details: negative logarithm of the antagonist dissociation constant, -log([antagonist]/(dose ratio -1)), indomethacin present
T1 construct: from tissue; host or cells: guinea-pig tracheal strips
T1 sequence (Q2NNR5 1-340): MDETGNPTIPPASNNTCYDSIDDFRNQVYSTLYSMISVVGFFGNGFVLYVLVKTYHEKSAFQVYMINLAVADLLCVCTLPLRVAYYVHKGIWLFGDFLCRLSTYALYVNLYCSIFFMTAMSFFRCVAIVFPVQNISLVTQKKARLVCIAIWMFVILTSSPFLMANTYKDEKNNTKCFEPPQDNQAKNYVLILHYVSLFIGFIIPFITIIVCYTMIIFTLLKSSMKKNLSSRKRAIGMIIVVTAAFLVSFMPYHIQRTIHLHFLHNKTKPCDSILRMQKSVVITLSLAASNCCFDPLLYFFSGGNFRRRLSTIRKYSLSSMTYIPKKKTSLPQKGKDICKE
Source text: Leukotriene antagonists may be further characterized using guinea-pig tracheal strips instead of ileum strips (10). In this relevant in vitro model of human airways (11) tracheal strips are suspended in a physiological buffer containing indomethacin. A concentration-response curve to LTD4 is generated in the presence and absence of the leukotriene antagonists. From these curves the potency of a leukotriene antagonist may be expressed as the pKB value, the negative logarithm of the antagonist dissociation constant. The pKB value is determined as -log([antagonist]/(dose ratio -1)), where the dose ratio is defined as EC50 (presence of antagonist)/EC50 (absence of antagonist) and EC50 refers to the concentration of LTD4 eliciting 50% of the maximum response to LTD4 (12).

LTD4 receptor = target: T2, LTD4 receptor (Cavia porcellus, UniProt Q2NNR5); assay: [3H]LTD4 receptor binding, guinea-pig lung membranes, direct competition assay; details: negative logarithm of the molar concentration inhibiting [3H]LTD4 binding by 50%
T2 construct: from tissue; host or cells: guinea-pig lung membranes
T2 sequence (Q2NNR5 1-340): T1 sequence (Q2NNR5 1-340)
Source text: It is of importance to investigate the receptor binding properties of leukotriene antagonists in relation to their pKB values (13), i.e. to correlate antagonist receptor blocking with inhibition of smooth muscle contraction. Receptor binding studies may be performed with guinea-pig lung membranes in a direct competition assay between a leukotriene antagonist and [^3 H]LTD4 for binding to the LTD4 receptor (10,13).

cyclooxygenase = assay: synthesis of cyclooxygenase products in A23187-stimulated rat peritoneal cells; format: cell-based; details: final concentration of 10^-6 M
Method: (§1) The following method was used to assay 5-lipoxygenase activity in vitro: Rat peritoneal cells were harvested by i.p. injection of 10 ml Hank's balanced salt solution (GIBCO, cat No. 4025, U.S.A.) containing 12.5 U/ml sodium heparin (Leo, Denmark) in anaesthesized rats. The resulting cell suspension, which mainly contained macrophages, was transferred to a test tube and washed twice by centrifugation (200 g, 10 min.) and resuspended in Hank's balanced salt solution containing 0.5% bovine serum albumin (BSA) (Sigma Chem. Co., U.S.A.). The cells from 9 rats were finally resuspended in Hank's balanced salt solution (with BSA) containing 5μCi [1-^14 C]arachidonic acid (The Radiochemical Centre, Amersham, U.K.) and incubated for 90 minutes at 37° C. This caused labelling of cell membrane phospholipids as radioactive arachidonic acid was incorporated in the 2-position of the glycerol moiety. Excess arachidonic acid was then removed by washing the cells twice as described above. The cells were finally resuspended in the same solution (without BSA) at 10^7 cells/ml. 475 μl of the cell suspension was preincubated at 37° C. for 5 minutes with either 5 μl dimethylsalphoxide (DMSO) (control tube), or 5 μl of a drug solution in DMSO. Then 20 μl of a mixture of equal volumes of the calcium ionophore A23187, 10^-4 M in ethanol (Calbiochem, U.S.A.), and 0.4M CaCl2 in water was added. The final concentration of A23187 was thus 2×10^-6 M, and of Ca^++ 8 mM. After 5 minutes of incubation the tubes were transferred to an ice-bath and centrifuged for 10 minutes at 3,000 g (4° C.). An aliquot of the supernatant was counted by liquid scintillation spectrometry in order to calculate the total radioactive release induced by A23187 in presence of drugs. A decrease in radioactive release was taken as indication of phospholipase A2 inhibition. The supernatant was then extracted with ethyl acetate (2 ml), adjusted to pH 3 with 1N HCl and further extracted with 2 ml ethyl acetate. The combined extracts were evaporated to dryness in vacuo, the residue was redissolved in a small volume of methanol and applied by means of a Desaga Autospotter™ to a silica-gel coated thin-layer plate fitted with a polar concentrating zone (Merck Art. 11798, Darmstadt, F.R.G.). The plates were developed in the organic layer of the solvent mixture ethyl acetate/acetic acid/iso-octane/water (55:10:25:50). Radioactive spots were detected by autoradiography (AGFA-GEVAERT, Osray-RPI X-ray film, Belgium), and changes induced by drugs in the metabolic pattern of arachidonic acid were quantified by a laser densitometer (LKB, Ultroscan ™2202, Bromma, Sweden) in combination with an integrating computer (SP 4100, Spectra-Physics, San Jose, Calif., U.S.A.).
These cells produced measurable amounts of radioactive 6-keto-prostaglandinF1α, thromboxane B2, prostaglandin D2, hydroxyheptadecatrienoic acid (HHT) (all cyclooxygenase products), 5-hydroxyeicosatetraenoic acid (5-HETE) and leukotriene B4 (both 5-lipoxygenase products).
At the same time, a decrease in synthesis of the cyclooxygenase products HHT, prostaglandin D2, thromboxane B2 and 6-ketoprostaglandin F1α was not observed. This pattern of drug activity is indicative of truly specific 5-lipoxygenase inhibition.

5-lipoxygenase = target: T3, 5-lipoxygenase (Rattus norvegicus, UniProt P12527); assay: 5-lipoxygenase activity in vitro (A23187-stimulated rat peritoneal cells, leukotriene B4 and 5-HETE production); format: cell-based; details: final concentration of 10^-6 M; A23187 2×10^-6 M
T3 construct: LTB4 and 5-HETE measured by TLC
T3 sequence (P12527 1-673): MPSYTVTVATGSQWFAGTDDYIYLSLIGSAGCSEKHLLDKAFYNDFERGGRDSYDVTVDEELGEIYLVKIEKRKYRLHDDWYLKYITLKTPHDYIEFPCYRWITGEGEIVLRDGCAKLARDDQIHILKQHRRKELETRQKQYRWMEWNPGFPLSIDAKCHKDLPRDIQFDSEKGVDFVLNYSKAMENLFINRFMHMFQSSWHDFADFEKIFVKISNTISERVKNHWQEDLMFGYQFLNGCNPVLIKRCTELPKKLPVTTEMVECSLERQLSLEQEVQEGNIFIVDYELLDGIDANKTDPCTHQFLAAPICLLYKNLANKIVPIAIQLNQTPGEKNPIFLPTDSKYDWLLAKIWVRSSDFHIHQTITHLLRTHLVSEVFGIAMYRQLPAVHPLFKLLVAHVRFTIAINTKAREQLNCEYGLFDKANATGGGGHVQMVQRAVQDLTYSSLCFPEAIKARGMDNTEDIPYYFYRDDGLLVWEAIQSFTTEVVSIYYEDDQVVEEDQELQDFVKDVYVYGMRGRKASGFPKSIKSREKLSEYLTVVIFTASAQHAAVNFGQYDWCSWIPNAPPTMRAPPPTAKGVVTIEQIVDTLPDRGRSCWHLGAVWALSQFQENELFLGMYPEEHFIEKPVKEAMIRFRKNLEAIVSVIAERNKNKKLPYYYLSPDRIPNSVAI
Method: as §1, with “Calif., U.S.A.). […]” for “Calif., U.S.A.).”

[2] = test system: guinea-pig ileum strips (LTD4); assay: inhibition of LTD4-induced contraction of guinea-pig ileum strips; format: cell-based; details: LTD4 at 10^-9 M; compound added 2 minutes prior; atropine and indomethacin present
Method: Leukotriene antagonists may be identified by observing the contractions elicited in preparations of guinea-pig ileum strips suspended in a physiological buffer by addition of pure leukotriene D4 (LTD4) (10). The ileum strips are connected to an isotonic transducer, and the contractions are continuously recorded on a multichannel recorder. Before addition of LTD4, atropine and indomethacin are added to the buffer in order to block any cholinergic or prostaglandin mediated contractile effects. Test compounds to be studied with respect to leukotriene antagonism are dissolved in DMSO and added to the organ bath 2 minutes prior to addition of LTD4 at 10^-9 M (final concentration), the final concentration of DMSO being 0.1%, a concentration which can be shown not to affect the ileum response to LTD4. The test compounds may be added at various concentrations, often beginning at […] and then decreasing the concentration in case of antagonism.
When the compounds of the present invention were added to the ileum preparation before addition of LTD4 a significant inhibition occurred of the specific LTD4 -induced contraction. […] On other hand, contractions induced with histamine at 10^-7 M were not inhibited by these compounds even at micromolar concentrations.

SMILES | Kb [1] [nM] | IC50 (LTD4 receptor) [nM] | decrease in synthesis of the cyclooxygenase product 6-ketoprostaglandin F1α (cyclooxygenase) | decrease in synthesis of the cyclooxygenase product HHT (cyclooxygenase) | decrease in synthesis of the cyclooxygenase product prostaglandin D2 (cyclooxygenase) | decrease in synthesis of the cyclooxygenase product thromboxane B2 (cyclooxygenase) | decrease in the production of 5-HETE (5-lipoxygenase) | decrease in the production of leukotriene B4 (5-lipoxygenase) | concentrations at which inhibition of LTD4-induced contraction occurred [2]
O=C(O)C(Nc1cccc(OCc2ccc3ccccc3n2)c1)c1ccccc1 (racemic) [Example 15, (S,R)-2-[3-(2-Quinolylmethyloxy)-anilino]-2-phenyl acetic acid] | 1 | 15.8 |  |  |  |  |  |  | 
CCOC(=O)[C@H](O)[C@H](Nc1cccc(OCc2ccc3ccccc3n2)c1)c1cccc(Cl)c1 (relative stereo) [Example 9] |  |  | not observed | not observed | not observed | not observed | significant and specific decrease | significant and specific decrease | 
CCOC(=O)[C@H](O)[C@H](Nc1ccc(OCc2ccc3ccccc3n2)cc1)c1ccccc1 (relative stereo) [Example 11, (2S,3R;2S,3S)-3-[4-(2-Quinolylmethyloxy)-anilino]-2-hydroxy-3-phenyl propionic acid ethyl ester] |  |  | not observed | not observed | not observed | not observed | significant and specific decrease | significant and specific decrease | 
O=C(O)C(Nc1ccc(OCc2ccc3ccccc3n2)cc1)c1ccccc1 (racemic) [Example 17, (S,R)-2-[4-(2-Quinolylmethyloxy)-anilino]-2-phenyl acetic acid] |  |  |  |  |  |  |  |  | submicromolar range
O=C(O)[C@H](O)[C@H](Nc1cccc(OCc2ccc3ccccc3n2)c1)c1ccccc1 (relative stereo) [Example 1, (2R,3R;2S,3S)-3-[3-(2-Quinolylmethoxy)-anilino]-2-hydroxy-3-phenyl propionic acid, sodium salt] | 0.2 | 2.51 |  |  |  |  |  |  | 
